Legend:
human mGluR5a receptor [1] = molecular target: T1, human mGluR5a receptor (Homo sapiens, UniProt P41594); test: Automated fluorescence assay (fluo-3) in transiently transfected HEK 293 cells; type: cell-based; set-up: expressed in transfected cells; host or cells: HEK 293 cells, transient CaPO4 transfection; conditions: cells transfected with mGluR5a2
Method: HEK 293 cells were transiently transfected with DNA encoding mGluR5a (constructs mGluR5a2 and mGluR5a3 and construct MMTV-hmGluR5a) receptors. Approximately 2×10^6 HEK cells were transiently transfected with 5-18 μg (or 0.18 μg in some transfections, see Example 3.C.2.) of the indicated plasmid according to standard CaPO4 transfection procedures [see Wigler et al. (1979) Proc. Natl. Acad. Sci. USA 76:1373-1376]. In addition, 0.5-2 μg (or 0.18 μg in some transfections, see Example 3.C.2) of plasmid pCMVβgal (Clontech Laboratories, Palo Alto, Calif.), which contains the Escherichia coli β-galactosidase gene fused to the CMV promoter, were co-transfected as a reporter gene for monitoring the efficiency of transfection. The transfectants were analyzed for β-galactosidase expression by direct staining of the product of a reaction involving β-galactosidase and the X-gal substrate [Jones (1986) EMBO 5:3133-3142]. Transfectants can also be analyzed for β-galactosidase expression by measurement of β-galactosidase activity [Miller (1972) in Experiments in Molecular Genetics, pp.352-355, Cold Spring Harbor Press].
HEK 293 cells that were transiently transfected with 5 μg of MMTV-hmGluR5A were co-transfected with 5 μg of pRShGR (ATCC accession no. 67200) which contains DNA encoding a glucocorticoid receptor operatively linked to the Rous Sarcoma virus (RSV) LTR promoter. Co-expression of glucocorticoid receptors in these cells should insure that induction of expression of the MMTV promoter-mGluR5a DNA occurs upon addition of glucocorticoid (e.g., dexamethasone) to the cells.
Untransfected HEK 293 cells (or HEK 293 cells transiently transfected with pCMV-T7-3) and HEK 293 cells that had been transfected with mGluR5a-encoding DNA were plated in the wells of a 96-well microtiter dish (Nunc Catalog No. 1-6708, distributed by Alameda Industries, Escondido, Calif.) that had been precoated with poly-L-lysine at a density of 2×10^5 cells/well and loaded with fluo-3 by incubation for 2 hours at 20° C. in a medium containing 20 μM fluo-3, 0.2% Pluronic F-127 in HBS (125 mM NaCl, 5 mM KCl, 1.8 mM CaCl2, 0.62 MM MgCl2, 20 mM glucose, 20 mM HEPES, pH 7.4). The cells were then washed with assay buffer (i.e. HBS). The microtiter dish was then placed into a fluorescence plate reader (e.g., Fluoroskan II, Lab Products International, Ltd., Raleigh, N.C.), and the basal fluorescence of each well was measured and recorded before addition of metabotropic receptor-modulating compounds such as quisqualate, glutamate, trans-ACPD (1-amino-cyclopentane-1,3-dicarboxylic acid), 1S,3R-ACPD, AP3 (2-amino-3-phosphonopropionate) AP5 (2-amino-5-phosphonopentanoate), and CNQX (6-cyano-7-nitroquinoxaline-2,3-dione) to the wells. The fluorescence of the wells was monitored repeatedly (75 readings at 0.63-sec intervals) following addition of agonist.

human mGluR5a receptor [2] = molecular target: T1, human mGluR5a receptor; test: Phosphatidylinositol hydrolysis (IP1) assay in HEK 293 cells transiently transfected with mGluR5a3; type: cell-based; set-up: expressed in transfected cells; host or cells: HEK 293 cells, transient CaPO4 transfection; conditions: 1 mM AP3
Method: HEK 293 cells that had been transiently transfected with mGluR5a3 were plated in 24-well microtiter plates at a density of 8×10^5 cells/well. After the cells were allowed to settle and adhere to the bottom of the plate for a few hours, 2 μCi of [^3H]-myo-inositol (Amersham catalog # PT6-271, Arlington Heights, Ill.; specific activity=17.7 Ci/mmol) was added to each well and incubated overnight at 37° C. The next day, the cells were examined under a Nikon Diaphot inverted microscope to assess the health of the cells morphologically as well as to determine if the wells contained a confluent layer of cells. Media was then aspirated and the cells were washed twice with 0.5 ml Krebs bicarbonate buffer [117.9 mM NaCl, 4.72 mM KCl, 2.54 mM CaCl2, 1.18 mM MgSO4, 1.19 mM KH2PO4, 25 mM NaHCO3, 11.1 mM dextrose (equilibrated with 95% O2, 5% CO2, pH 7.4)]. The cells were incubated for 45 min. at room temperature. The buffer was then aspirated from each well and the cells were washed and incubated in 0.5 ml/well for 45 min at room temperature. The buffer was aspirated from each well, and the cells were then incubated for 20 min at 37° C. with 450 μl Krebs-bicarbonate buffer containing 10 mM LiCl instead of 10 mM NaCl (to block hydrolysis of IP1 to inositol and inorganic phosphate) and 10 mM unlabeled myo-inositol.
To begin treatment of the cells with metabotropic receptor-modulating compounds, 50 μl of Krebs-bicarbonate buffer (control) or 10× the final concentration of the compound was added to each well and the incubation was continued for 40 min. Incubation was terminated by addition of 1 ml ice-cold methanol to each well.
In order to isolate IP1 from the cells, the cells were removed from the plates by scraping with plastic pipette tips, and the cell suspension was transferred to 12×75 mm glass tubes. The tubes were thoroughly vortexed, and a 150-μl aliquot, i.e., one-tenth of the total volume, of each reaction mixture was transferred to another tube for protein determination. The water-soluble inositol phosphates were separated from the radiolabelled membrane phospholipids by extraction in 1 ml chloroform. The tubes were incubated at room temperature for 30 min before centrifugation at 500×g for 5 min at 4° C. The aqueous (top) layer containing the [^3H]-inositol phosphates was transferred to 10-ml syringes connected to Accell QMA SEP-PAK columns (Millipore; Calif.), which were attached to an Amersham Superseparator apparatus that was modified to allow collection into 20-ml scintillation vials. Water (10 ml) was added to the cartridge to remove [^3H]-inositol precursor, followed by 4 ml 0.02 M triethylammonium hydrogen carbonated buffer (TEAB, Fluka; N.Y.). To separately remove [^3H]-IP1, [^3H]-IP2 and [^3H]-IP3 from the cartridge, 4 ml of 0.1 M TEAB, 4 ml of 0.3 M TEAB and 4 ml of 0.4 M TEAB were sequentially added to the cartridge and the separate eluate fractions were collected in large scintillation vials. Ecolume cocktail (15 ml; ICN; California) was added to each vial for subsequent scintillation counting to determine the amount of each IP in the separate fractions. Protein concentration was determined using the Bio-Rad Protein Micro-Assay (Bio-Rad, Richmond, Calif.).

[3] = test system: olfactory cyclic nucleotide-gated channel; test: Single-cell video imaging of [Ca++]i in HEK293 cells transfected with pCMV-OCNA; type: cell-based; conditions: 1 mM IBMX
Method: The transfectants were also analyzed by single-cell video imaging of internal calcium levels ([Ca^++]i). This method allows analysis of cyclic nucleotide-gated channel activity by measurement of intracellular calcium levels, which change with the amount of calcium influx through the channel, as regulated by cyclic nucleotide activation of the channel. The imaging assay was conducted essentially as described in Example 3.C.1.b., with some modifications. After dye loading, the cells were examined using a Zeiss Axiovert microscope and 100 W mercury lamp, a Dage intensified CCD camera, and Image-1 hardware and software for image processing. The software controlled the alternate excitation of the cells at 350 and 385 nm (typically every 5 seconds) through a 20×1.3 N.A. oil immersion objective. Light emitted at greater than 510 nm was collected by the CCD camera, digitized, and 350 and 385 nm excitation images were background-subtracted before calculating the 350/385 nm intensity ratio.
For quantitative analysis, the average 350/385 ratio value in a 12 by 12 pixel region over each cell was calculated by the software for each ratio image in an experiment and imported into a spreadsheet for further analysis and graphing. […]
In these experiments, the HEK293 cell transfectants were exposed to agents which increase intracellular cAMP levels and monitored for subsequent changes in [Ca^++]i. […]

[4] = molecular target: olfactory cyclic nucleotide-gated channel (Rattus norvegicus, UniProt Q00195); conditions: 1 mM cAMP; membrane potential ramped from −100 to +100 mV in 2 seconds; one patch
Method: HEK293 cells were grown in monolayers (approximately 2×10^6 cells per 10 cm poly-D-lysine-coated plate) in Dulbecco's modified Eagle's medium (DMEM; Gibco) containing 5% defined supplemented calf serum (Hyclone) including 100 U/ml penicillin and 100 μg/ml streptomycin sulfate. […] Transfection efficiencies, as determined by measuring β-galactosidase activity, were 50-70%.
HEK cells transfected with olfactory cyclic nucleotide-gated channel DNA were incubated 24-48 hours before testing for function. The activity of the channels was first assessed electrophysiologically using inside-out membrane patches pulled from the transfected cells so that the concentration of cAMP reaching the cytoplasmic face could be controlled (see, e.g., Single-Channel Recording, Sakmann and Neher, eds., Plenum Press, N.Y. (1983)). […]

[5] = test system: endogenous G-protein-coupled muscarinic acetylcholine receptors; test: Fluorescence imaging assay (fura-2), response to muscarinic agonist; type: cell-based, human; conditions: 1 mM; transfectants and untransfected HEK 293 cells
Method: HEK 293 cells that had been transiently transfected with mGluR5a3 and untransfected HEK 293 cells (control) were analyzed by digital video imaging in order to visualize metabotropic receptor-mediated changes in intracellular Ca^++ concentration. Transfectants (4×10^5 cells per 35-mm culture dish with glass-insert bottom) were loaded with fura-2 by exposing the cells to 1 μM fura-2 (acetoxymethyl ester) for 25 min at room temperature in the dark. The cells were then washed three times with DMEM and four times with Ringer's (160 mM NaCl, 5 mM KCl, 2 mM CaCl2, 1 mM MgCl2, 11 mM glucose, 5 mM HEPES, pH 7.3) solution.
The transfectants and untransfected cells were then placed on the stage of an Axiovert 100 TV inverted microscope (Zeiss, Oberkochren, Germany) equipped with a 150 W xenon lamp as the UV light source. […]
The uncalibrated fura-2 ratios were used to generate pseudocolor images with purple corresponding to resting intracellular Ca^++ concentration (˜100 nM) and red to high intracellular Ca^++ concentration (˜1 μM). For quantitative analysis, the average ratio value in a 12-by-12 pixel region over each cell was calculated by the software for each ratio image in an experiment and imported into a spreadsheet for further analysis and graphing.

human mGluR5a receptor [6] = molecular target: T1, human mGluR5a receptor; test: [3H]-glutamate binding to membranes of HEK 293 cells transfected with mGluR5a3; set-up: expressed in transfected cells; host or cells: HEK 293 cells, transient CaPO4 transfection; conditions: 200 μg of membranes, 100 nM [3H]-glutamate
Method: In order to prepare membranes from HEK 293 cells transfected. with mGluR5a-encoding DNA or pUC19 (negative control), cells were scraped from the tissue culture plates, and the plates rinsed with 5 ml of PBS (phosphate-buffered saline: 137 mM NaCl, 2.7 mM KCl, 10 mM Na2HPO4, 1.7 mM KH2PO4). The cells were centrifuged at low speed in a table-top centrifuge, and the cell pellet was rinsed with PBS. The cell pellet was resuspended in 20 volumes of 50 mM Tris-HCl containing 0.5 mM PMSF, pH 7.6. The cells were homogenized on ice in a Dounce (teflon/glass) homogenizer using 10-20 strokes. The homogenate was centrifuged at 120,000×g for 30 min. at 4° C. The final membrane pellet was resuspended in 50 mM Tris-HCl containing 0.5 mM PMSF, pH 7.6. […] The protein concentration was determined using the method of Bradford [(1976) Anal. Biochem. 72:248).
Specific binding of [^3H]-glutamate to membranes prepared from HEK 293 cells transfected with mGluR5a-encoding DNA or pUC19 was determined essentially as described for measuring binding to rat brain membranes with minor modifications. […] NMDA, AMPA and kainate were excluded from the assay mixture when HEK 293 cell membranes were being analyzed for [^3H]-glutamate binding.
Specific binding of [^3H]-glutamate to membranes prepared from HEK 293 cells transfected with mGluR5a3 or pUC19 was measured using 200 μg of membranes and 100 nM [^3H]-glutamate.

T1 sequence (P41594 21-1180 isoform P41594-2 limits assumed): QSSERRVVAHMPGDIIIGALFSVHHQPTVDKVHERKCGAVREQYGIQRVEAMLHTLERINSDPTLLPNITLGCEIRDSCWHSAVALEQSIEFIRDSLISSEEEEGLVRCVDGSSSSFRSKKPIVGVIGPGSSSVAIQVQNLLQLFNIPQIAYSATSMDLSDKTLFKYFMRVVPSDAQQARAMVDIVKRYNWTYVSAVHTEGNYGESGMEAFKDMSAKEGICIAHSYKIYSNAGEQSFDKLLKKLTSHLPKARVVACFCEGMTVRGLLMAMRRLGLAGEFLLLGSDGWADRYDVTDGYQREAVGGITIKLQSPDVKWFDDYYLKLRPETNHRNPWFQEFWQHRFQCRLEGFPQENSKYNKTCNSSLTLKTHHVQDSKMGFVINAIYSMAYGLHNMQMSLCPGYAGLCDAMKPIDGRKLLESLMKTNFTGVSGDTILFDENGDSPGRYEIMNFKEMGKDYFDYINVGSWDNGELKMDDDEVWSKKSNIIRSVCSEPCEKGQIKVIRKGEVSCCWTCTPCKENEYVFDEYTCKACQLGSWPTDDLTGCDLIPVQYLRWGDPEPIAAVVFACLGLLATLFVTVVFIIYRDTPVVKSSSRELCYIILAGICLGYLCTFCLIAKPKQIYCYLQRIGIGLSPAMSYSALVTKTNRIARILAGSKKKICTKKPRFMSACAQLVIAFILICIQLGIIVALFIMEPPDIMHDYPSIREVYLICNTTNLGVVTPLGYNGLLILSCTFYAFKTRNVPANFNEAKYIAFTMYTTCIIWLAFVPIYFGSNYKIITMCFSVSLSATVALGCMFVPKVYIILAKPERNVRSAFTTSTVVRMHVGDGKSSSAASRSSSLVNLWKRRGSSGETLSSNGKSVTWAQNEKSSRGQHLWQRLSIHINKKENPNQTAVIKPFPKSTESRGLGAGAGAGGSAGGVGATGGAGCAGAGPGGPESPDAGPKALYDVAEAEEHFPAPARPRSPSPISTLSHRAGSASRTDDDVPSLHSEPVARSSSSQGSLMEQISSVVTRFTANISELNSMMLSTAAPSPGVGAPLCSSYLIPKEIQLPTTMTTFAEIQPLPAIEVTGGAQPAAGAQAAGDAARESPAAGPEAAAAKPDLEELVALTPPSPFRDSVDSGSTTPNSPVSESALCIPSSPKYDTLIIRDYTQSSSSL
Chain of olfactory cyclic nucleotide-gated channel (Rattus norvegicus, UniProt Q00195) (Q00195 whole entry): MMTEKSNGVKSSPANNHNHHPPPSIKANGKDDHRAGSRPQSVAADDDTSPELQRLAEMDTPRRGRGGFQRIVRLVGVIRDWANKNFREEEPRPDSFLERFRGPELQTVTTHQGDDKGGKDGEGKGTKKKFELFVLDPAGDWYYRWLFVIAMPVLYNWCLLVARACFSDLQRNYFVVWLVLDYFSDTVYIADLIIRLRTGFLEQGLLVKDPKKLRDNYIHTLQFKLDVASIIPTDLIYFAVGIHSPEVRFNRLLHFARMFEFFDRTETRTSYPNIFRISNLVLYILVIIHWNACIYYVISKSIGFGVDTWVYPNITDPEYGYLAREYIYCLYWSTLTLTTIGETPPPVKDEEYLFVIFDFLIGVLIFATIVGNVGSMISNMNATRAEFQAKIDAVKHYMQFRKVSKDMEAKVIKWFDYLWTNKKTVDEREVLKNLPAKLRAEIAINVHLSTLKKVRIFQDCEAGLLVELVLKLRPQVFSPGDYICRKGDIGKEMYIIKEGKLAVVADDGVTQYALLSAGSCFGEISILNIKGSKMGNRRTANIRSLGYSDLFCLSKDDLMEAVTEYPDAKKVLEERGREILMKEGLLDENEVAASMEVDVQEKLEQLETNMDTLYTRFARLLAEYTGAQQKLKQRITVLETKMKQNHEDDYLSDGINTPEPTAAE

Question: `NC(CP(=O)(O)O)C(=O)O` (centres unmarked) [AP3, 2-amino-3-phosphonopropionate] was tested. Which “inhibition of glutamate-, quisqualate- or trans-ACPD-stimulated fluorescence increases” value (human mGluR5a receptor [1]) did it give?
Answer: Neither of these compounds (AP3, AP5 or CNQX) inhibited

Question: What about the “effect on quisqualate-induced increase in IP1 levels” value (human mGluR5a receptor [2]) of the same molecule?
Answer: not affected

Question: `NC(CCCP(=O)(O)O)C(=O)O` (centres unmarked) [AP5, 2-amino-5-phosphonopentanoate] was tested. Which “inhibition of glutamate-, quisqualate- or trans-ACPD-stimulated fluorescence increases” value (human mGluR5a receptor [1]) did it give?
Answer: Neither of these compounds (AP3, AP5 or CNQX) inhibited

Question: `N#Cc1cc2c(cc1[N+](=O)[O-])=NC(=O)C(=O)N=2` [CNQX, 6-cyano-7-nitroquinoxaline-2,3-dione] was tested. Which “inhibition of glutamate-, quisqualate- or trans-ACPD-stimulated fluorescence increases” value (human mGluR5a receptor [1]) did it give?
Answer: Neither of these compounds (AP3, AP5 or CNQX) inhibited

Question: How did the “change in [Ca++]i” value [3] turn out when `CC(C)Cn1c(=O)n(C)c(=O)c2[nH]cnc21` [IBMX, 3-isobutyl-1-methylxanthine] was run?
Answer: more significant increase

Question: For `Nc1ncnc2c1ncn2[C@@H]1O[C@@H]2COP(=O)(O)O[C@H]2[C@H]1O` [cAMP, cyclic AMP], which “current in inside-out patch” value [4] is on record?
Answer: a current was elicited

Question: Which “intracellular Ca++ concentration change” value [5] does the source give for `C[N+](C)(C)CCOC(N)=O.[Cl-]` [carbamylcholine] here?
Answer: detectable increase in the intracellular Ca^++ concentration of the majority of the cells

Question: Which “specific binding versus membranes of pUC19-transfected cells” value (human mGluR5a receptor [6]) does the source give for [^3H]-glutamate here?
Answer: significantly higher

Reference: patent US6413764B1, “Human metabotropic glutamate receptors, nucleic acids encoding same and uses thereof” (Merck & Co., Inc., priority 1993, dated 2002)
